Results on 5 compounds are retold here after patent publication US20130315825A1, “TRICYCLIC HETEROAROMATIC COMPOUNDS AS ALPHA-SYNUCLEIN LIGANDS” (Washington University, priority 2012, published 2013).

Usually melting point stands for the temperature, or range, at which the solid turns liquid. What is called Ki is the dissociation constant of the complex between target and ligand, obtained from inhibition or displacement.

Data set [1] deals with T1, Aβ1-42 fibrils (Homo sapiens, UniProt P05067).
T1 construct: Synthetic Aβ1-42 peptide (1 mg) (Bachem, Torrance, Calif.); purchased Bachem, Torrance, Calif; host or cells: synthetic peptide
T1 sequence (P05067 672-713 limits assumed): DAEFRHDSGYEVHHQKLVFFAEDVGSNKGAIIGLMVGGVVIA
Description: [125I]SIL23 competitive binding assay, Aβ1-42 fibrils. To be noted: [125I]SIL23 competition, 95% confidence intervals in parentheses.

Data set [2] concerns the target T2, tau fibrils (Homo sapiens, UniProt P10636).
T2 construct: made in house; host or cells: BL21(DE3)RIL E. coli
Put plainly: [125I]SIL23 competitive binding assay, tau fibrils. As to conditions: [125I]SIL23 competition, 95% confidence intervals in parentheses.

Data set [3] addresses α-synuclein fibrils (Homo sapiens, UniProt P37840). Description: ThT fluorescence saturation binding to α-synuclein fibrils. Set-up: made in house; host or cells: BL21(DE3)RIL E. coli.
Description: The maximum excitation wavelength (λex) was determined according to the fluorescent intensity-excitation wavelength curve. At (λex), the emission wavelength was scanned to get maximum emission wavelength (λem).
The nature of data set [4]: Ex vivo biodistribution in Sprague-Dawley rats.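 On all read-outs here: four rats in each time-point group.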 As to conditions: for brain uptake: male SD rats (n=4).
Description: Group of rats (n=4) were used for each time point. […] The whole brain was quickly removed and dissected into segments consisting of brain stem, thalamus, striatum, hippocampus, cortex, and cerebellum. The remainder of the brain was also collected to determine total brain uptake. […] Tissues were weighed, and the % I.D./g for each tissue was calculated.
A short description of data set [5]: MicroPET study in the brain of a nonhuman primate. It is filed as in vivo, cynomolgus monkey. As to conditions: monkey 5.8 kg, 8.68 mCi/6 mL injected. The source says:
The brain of a cynologmus monkey was scanned using a microPET scanner. The left panel is the MRI image. The middle panel is the co-registered the MRI and PET image. The right panel is the PET image. […] FIG. 74 presents a plot of the radiation in portions of the monkey brain as a function of time. […] It also has favorable clearance pharmacokinetics from the brain.

T2 sequence (P10636 560-692): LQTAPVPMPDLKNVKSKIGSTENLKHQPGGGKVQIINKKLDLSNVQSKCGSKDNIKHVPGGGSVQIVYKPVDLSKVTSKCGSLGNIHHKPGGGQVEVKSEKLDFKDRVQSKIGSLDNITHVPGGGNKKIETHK

Turning to `COc1ccc2c(c1)Sc1cc(N)ccc1N2C` [Compound 13a, 7-methoxy-10-methyl-10H-phenothiazin-3-amine], the melting point is 141.6 to 142.9 °C.
Regarding `O=[N+]([O-])c1ccc2c(c1)Sc1ccccc1N2` [SIL3B, 3-nitro-10H-phenothiazine], the Ki in data set [1] is 0.0715 µM; in data set [2] it was 0.0523 µM.
For the compound `O=[N+]([O-])c1ccc2c(c1)Sc1cc(Br)ccc1N2` [SIL22, 3-bromo-7-nitro-10H-phenothiazine], the Ki is 0.102 µM in data set [1] and 0.173 µM in data set [2].
In the case of `Cc1ccc2c(c1)sc(-c1ccc(N(C)C)cc1)[n+]2C` [ThT, Thioflavin T], the Bmax in data set [3] is recorded as 5672 afu.
On to `COc1ccc2c(c1)Sc1cc([N+](=O)[O-])ccc1N2` [[^11C]SIL5], for which the Biodistribution in data set [4] (blood, 5 min, male Sprague-Dawley rats) stood at 0.506 ± 0.040 I.D. %/gram; in data set [4] (blood, 30 min, male Sprague-Dawley rats), 0.369 ± 0.031 I.D. %/gram; in data set [4] (blood, 60 min, male Sprague-Dawley rats), 0.300 ± 0.015 I.D. %/gram; in data set [4] (fat, 5 min, male Sprague-Dawley rats) it was 0.155 ± 0.023 I.D. %/gram; in data set [4] (fat, 30 min, male Sprague-Dawley rats) it was 0.241 ± 0.042 I.D. %/gram; in data set [4] (fat, 60 min, male Sprague-Dawley rats) it was 0.293 ± 0.076 I.D. %/gram. The Biodistribution in data set [4] (heart, 5 min, male Sprague-Dawley rats) turned out to be 0.758 ± 0.052 I.D. %/gram; in data set [4] (heart, 30 min, male Sprague-Dawley rats), 0.377 ± 0.046 I.D. %/gram; in data set [4] (heart, 60 min, male Sprague-Dawley rats) it was 0.245 ± 0.010 I.D. %/gram; in data set [4] (kidney, 30 min, male Sprague-Dawley rats), 0.807 ± 0.086 I.D. %/gram; in data set [4] (kidney, 60 min, male Sprague-Dawley rats) it was 0.559 ± 0.053 I.D. %/gram; in data set [4] (liver, 5 min, male Sprague-Dawley rats), 2.198±0.111 I.D. %/gram. In addition, the Biodistribution turned out to be 1.349 ± 0.116 I.D. %/gram in data set [4] (liver, 30 min, male Sprague-Dawley rats); 1.116±0.024 I.D. %/gram in data set [4] (liver, 60 min, male Sprague-Dawley rats); 1.149 ± 0.058 I.D. %/gram in data set [4] (lung, 5 min, male Sprague-Dawley rats); 0.740 ± 0.038 I.D. %/gram in data set [4] (lung, 30 min, male Sprague-Dawley rats); 0.485 ± 0.036 I.D. %/gram in data set [4] (lung, 60 min, male Sprague-Dawley rats); 0.271 ± 0.005 I.D. %/gram in data set [4] (muscle, 5 min, male Sprague-Dawley rats). Also, the Biodistribution in data set [4] (muscle, 30 min, male Sprague-Dawley rats) is given as 0.325 ± 0.030 I.D. %/gram; in data set [4] (muscle, 60 min, male Sprague-Dawley rats), 0.199 ± 0.016 I.D. %/gram; in data set [4] (pancreas, 5 min, male Sprague-Dawley rats), 1.007 ± 0.262 I.D. %/gram; in data set [4] (pancreas, 30 min, male Sprague-Dawley rats), 0.506 ± 0.066 I.D. %/gram; in data set [4] (pancreas, 60 min, male Sprague-Dawley rats), 0.522 ± 0.036 I.D. %/gram; in data set [4] (spleen, 5 min, male Sprague-Dawley rats), 0.659 ± 0.049 I.D. %/gram. The Biodistribution in data set [4] (spleen, 30 min, male Sprague-Dawley rats) amounted to 0.400 ± 0.052 I.D. %/gram; in data set [4] (spleen, 60 min, male Sprague-Dawley rats), 0.386 ± 0.027 I.D. %/gram. Besides, the brain uptake is on record as 0.953±0.115 % I.D./g in data set [4] (5 min post i.v. injection), 0.287±0.046 % I.D./g in data set [4] (30 min post i.v. injection) and 0.158±0.014 % I.D./g in data set [4] (60 min post i.v. injection). In data set [4] (liver, from 5 min to 60 min), the “decrease of liver uptake” value was “about 50%”. In addition, the “ability to cross the blood-brain-barrier (BBB)” value in data set [4] (male Sprague-Dawley rats, i.v.) is on record as “able to cross BBB”. Further, the “brain uptake (microPET)” value in data set [5] is recorded as “high uptake in the brain”. Also, in data set [5], the “washout kinetics from the brain (microPET)” value was “good washout kinetics”.
